In the NIST ThermoML archive (doi:10.1016/j.jct.2013.05.024):

Conditions: 101.3 kPa, Liquid, Vibrating tube method

CCOC(=O)C(=O)OCC [diethyl ethanedioate]
Conditions | mass density [kg/m3]
278.15 K | 1095.94
288.14 K | 1084.24
298.15 K | 1072.53
313.15 K | 1054.92
328.15 K | 1037.26
338.15 K | 1025.42
348.15 K | 1013.53
358.15 K | 1001.6
